According to EP4245293B1, “USE OF SUGAR AMINES AS COMPLEXING AGENTS” (Clariant International Ltd, priority 2022, dated 2023):

Legend:
Assay type in all cases: physicochemical
[1] = Complexing ability test of Dimethylglucamine vs. Aminomethylpropanol; details: for Result: Cu^2+ solution 0,2 mmol/L, each chelant at 0.6 mmol/L, observed color and precipitate
Experimental: The relative complexing ability of the chelant Dimethylglucamine is evaluated vs. Aminomethylpropanol by observing color changes and precipitate formation. In particular Aminomethylpropanol was chosen since in the previous test c) it was shown that Aminomethylpropanol makes complex with Copper that differs in color of Copper complex with Dimethylglucamine. Therefore, it is possible to evaluate the strength of complexation of Aminomethylpropanol and Dimethylglucamine when both chelants are present in solution of Copper^2+ ions by observing the color of solution. To Cu^2+ solutions (c = 0,2 mmol/L), solutions of chelants are added: • Aminomethylpropanol at 0,6 mmol/L • Dimethylglucamine at 0,6 mmol/L • Aminomethylpropanol at 0,6 mmol/L + Dimethylglucamine 0,6 mmol/L

[2] = Confirmation of complex formation with single chelants, Cu2+ ions
[3] = Confirmation of complex formation with single chelants, Fe3+ ions
[4] = Complexing ability test vs. EDTA (color changes and precipitate formation); details: for Result: Fe^3+ solution 0,2 mmol/L, observed color and precipitate; for chelating strength for Iron^3+ ions relative to EDTA: both EDTA and chelant present, judged from the colored complex formed
Experimental: The relative complexing ability of the chelant is evaluated vs. EDTA by observing color changes and precipitate formation.
To Fe^3+ and Cu^2+ solutions (c = 0,2 mmol/L), solutions of chelants are added: • Na4EDTA at 0,4 mmol/L • Na4EDTA at 2 mmol/L • Only chelant (Dimethylglucamine or Piroctone Olamine) at 0,6 mmol/L • Chelant (Dimethylglucamine or Piroctone Olamine) at 0,6 mmol/L + Na4EDTA 0,4 mmol/L • Chelant (Dimethylglucamine or Piroctone Olamine) at 0,6 mmol/L + Na4EDTA 2 mmol/L

[5] = Cu^2+ solution 0,2 mmol/L with single chelant
[6] = Cu^2+ solution 0,2 mmol/L, single chelant added at c=0,2 mmol/L, observed color and precipitate
[7] = Fe^3+ solution 0,2 mmol/L with single chelant
[8] = Fe^3+ solution 0,2 mmol/L, single chelant added at c=0,2 mmol/L, observed color and precipitate

Compound | pH [2, 5] | pH [3, 7] | pH [2] | pH [3] | Result [1] | Result [2, 6] | Result [3, 8] | Result ([4]; only chelant at 0,6 mmol/L) | chelating strength for Iron^3+ ions relative to EDTA [4] | complex formed in presence of Aminomethylpropanol and Cu^2+ ions ([1]; both chelants present at 0,6 mmol/L) | complexes formed with Copper^2+ ions [2] | complexes formed with Iron^3+ ions [3] | Result [2] | Result ([4]; EDTA 0.4 mmol/L, alone or with chelant at 0,6 mmol/L) | Result ([4]; EDTA 2 mmol/L, alone or with chelant at 0,6 mmol/L) | Result [3]
Cc1cc(CC(C)CC(C)(C)C)n(O)c(=O)c1.NCCO (stereo not shown) [Piroctone Olamine] | 8.3 | 3.8 |  |  |  | Turbid, light blue solution | Turbid solution with distinct orange precipitate | Turbid yellowish solution with distinct orange precipitate | stronger than EDTA |  |  |  |  |  |  | 
CN(C)C[C@H](O)[C@@H](O)[C@H](O)[C@H](O)CO [Dimethylglucamine, N,N-dimethylglucamine] | 6.5 | 3.4 |  |  | Clear light blue solution | Clear, light blue solution | Clear solution with distinct orange precipitate | Clear solution with distinct orange precipitate | stronger chelating agent than EDTA | distinct blue complex of Dimethylglucamine is formed instead of brown complex of Aminomethylpropanol and Cu^2+ ions | blue complexes | distinct orange complexes |  |  |  | 

More lines, main results first:

pH [2, 5] | pH [3, 7] | pH [2] | pH [3] | Compound | Result [1] | Result [2, 6] | Result [3, 8] | Result ([4]; only chelant at 0,6 mmol/L) | chelating strength for Iron^3+ ions relative to EDTA [4] | complex formed in presence of Aminomethylpropanol and Cu^2+ ions ([1]; both chelants present at 0,6 mmol/L) | complexes formed with Copper^2+ ions [2] | complexes formed with Iron^3+ ions [3] | Result [2] | Result ([4]; EDTA 0.4 mmol/L, alone or with chelant at 0,6 mmol/L) | Result ([4]; EDTA 2 mmol/L, alone or with chelant at 0,6 mmol/L) | Result [3]
9.2 | 4.0 |  |  | CC(C)(N)CO [Aminomethylpropanol] | Clear solution with distinct brown precipitate | Clear solution with distinct brown precipitate | Clear solution with distinct orange precipitate |  |  |  |  |  |  |  |  | 
4.6 | 3.3 |  |  | NCC(=O)O [Glycine] |  | Clear, slightly bluish solution | Clear solution with distinct orange precipitate |  |  |  |  |  |  |  |  | 
 |  | 10.0 | 10.6 | O=C(O)CN(CCN(CC(=O)O)CC(=O)O)CC(=O)O [EDTA, ethylenediaminetetraacetic acid] |  |  |  |  |  |  |  |  | Clear, light blue solution | Clear, very slightly yellowish solution | Clear, very slightly yellowish solution | Clear, very slightly yellowish solution
